Where two headings read alike, the source gives them in different places.
Tests used:
Type in all cases: cell-based, human
[1] = test system: AsPC-1 cells (KRAS G12D mutation); experiment: 3D cell proliferation assay (CellTiter Glo-3D), AsPC-1; details: medium with 2% FBS, read-out: AsPC-1 AP IC50
Outline: (§1)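 NCI-H441 ([…] lung) and AsPC-1 (KRAS G12D pancreatic) cells, 800 per well, were seeded in RPMI-1640 with 2% FBS and dosed next day with 3.16-fold compound dilutions (0.1% DMSO). After 5 days at 37 °C, CellTiter-Glo 3D luminescence gave inhibition versus DMSO and blank; IC50 from four-parameter fit.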

[2] = test system: p-ERK in NCI-H441 cells (KRAS G12V mutation); experiment: Cell p-ERK assay (HTRF) in NCI-H441 cells; details: NCI-H441 cells, 3 h compound incubation, HTRF p-ERK T202/Y204, read-out: H441 p-ERK IC50
Outline: (§2)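 Seed 10000 AsPC-1 or 20000 NCI-H441 cells/well, overnight 37 °C/5% CO2. Cpd 3.16-fold series, 0.1% DMSO final, 3 h. Lyse 30 min, HTRF p-ERK (T202/Y204) Ab 4 h. IC50: 4-parameter fit of IR% normalised to DMSO and blank.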

[3] = test system: p-ERK in AsPC-1 cells (KRAS G12D mutation); experiment: Cell p-ERK assay (HTRF) in AsPC-1 cells; details: AsPC-1 cells, 3 h compound incubation, HTRF p-ERK T202/Y204, read-out: AsPC-1 p-ERK IC50
Outline: as §2

NCI-H441 cells = experiment: 3D cell proliferation assay (CellTiter Glo-3D), NCI-H441; details: medium with 2% FBS, read-out: H441 AP IC50
Outline: as §1

[4] = Homo sapiens, ASPC1, 3D cell proliferation (CellTiter Glo-3D)
[5] = Homo sapiens, NCI-H441, 3D cell proliferation (CellTiter Glo-3D)
[6] = 3D cell proliferation (CellTiter Glo-3D)

IC50 [1, 4]	IC50 ([2]; Homo sapiens, NCI-H441, 3 h)	IC50 ([3]; Homo sapiens, ASPC1, 3 h)	IC50 (NCI-H441 cells; [5])	IC50 [1, 6]	IC50 [2]	IC50 [3]	IC50 (NCI-H441 cells; [6])	Structure (SMILES)
28.3 nM	9.86 nM	18.7 nM	7.54 nM	–	–	–	–	CCn1c(-c2cc([C@H]3CCN4CCOC[C@H]4C3)cnc2[C@H](C)OC)c2c3cc(ccc31)-c1csc(n1)C[C@H](NC(=O)[C@H]1[C@H](C)[C@@H]1C)C(=O)N1CCC[C@H](N1)C(=O)OCC1(CC1)C2 (single isomer, unassigned) [Compound Z78]
19.3 nM	9.7 nM	24.1 nM	6.59 nM	–	–	–	–	CCn1c(-c2cc([C@H]3CCN4CCOC[C@@H]4C3)cnc2[C@H](C)OC)c2c3cc(ccc31)-c1csc(n1)C[C@H](NC(=O)[C@H]1[C@H](C)[C@@H]1C)C(=O)N1CCC[C@H](N1)C(=O)OCC1(CC1)C2 (single isomer, unassigned) [Compound Z79]
19 nM	11.7 nM	25.3 nM	7.27 nM	–	–	–	–	CCn1c(-c2cc([C@@H]3CCN4CCOC[C@H]4C3)cnc2[C@H](C)OC)c2c3cc(ccc31)-c1csc(n1)C[C@H](NC(=O)[C@H]1[C@H](C)[C@@H]1C)C(=O)N1CCC[C@H](N1)C(=O)OCC1(CC1)C2 (single isomer, unassigned) [Compound Z80]
18.3 nM	5.48 nM	10.8 nM	7.33 nM	–	–	–	–	CCn1c(-c2cc(OCC34CCCN3CCC4)cnc2[C@H](C)OC)c2c3cc(ccc31)-c1csc(n1)C[C@H](NC(=O)[C@H]1[C@H](C)[C@@H]1C)C(=O)N1CCC[C@H](N1)C(=O)OCC1(CC1)C2 (single isomer, unassigned) [Compound Z339]
–	–	–	–	6.52 nM	1.7 nM	4.13 nM	4.73 nM	CCn1c(-c2cc(C#C[C@@H]3CCCN3C)cnc2[C@H](C)OC)c2c3cc(ccc31)-c1csc(n1)C[C@H](NC(=O)[C@H]1[C@H](C)[C@@H]1C)C(=O)N1CCC[C@H](N1)C(=O)OCC(C)(C)C2 (single isomer, unassigned) [Compound Z598A]
4.51 nM	1.56 nM	3.35 nM	1.58 nM	–	–	–	–	CCn1c(-c2cc(OCCN3CCP(C)(=O)CC3)cnc2[C@H](C)OC)c2c3cc(ccc31)-c1csc(n1)C[C@H](NC(=O)[C@H]1[C@H](C)[C@@H]1C)C(=O)N1CCC[C@H](N1)C(=O)OCC(C)(C)C2 (single isomer, unassigned) [Compound Z780]
1.28 nM	0.51 nM	0.95 nM	1.21 nM	–	–	–	–	CCn1c(-c2cc(C#CCN3CCCOCC3)c[n+]([O-])c2[C@H](C)O)c2c3cc(ccc31)-c1csc(n1)C[C@H](NC(=O)[C@H]1[C@H](C)[C@@H]1C)C(=O)N1CCC[C@H](N1)C(=O)OCC(C)(C)C2 (single isomer, unassigned) [Compound Z1039]
–	–	–	–	0.88 nM	0.31 nM	0.31 nM	0.51 nM	CCn1c(-c2cc(N3CCN4CCOC[C@@H]4C3)cnc2[C@H](C)OC)c2c3cc(ccc31)-c1csc(n1)C[C@H](NC(=O)[C@H]1[C@H](C)[C@@H]1C)C(=O)N1CCC[C@H](N1)C(=O)OCC(C)(C)C2 [Compound Z72]
56.5 nM	18.6 nM	38.7 nM	19.4 nM	–	–	–	–	CCn1c(-c2cc(C3(C(=O)N4CCN(C)CC4)CC3)cnc2[C@H](C)OC)c2c3cc(ccc31)-c1csc(n1)C[C@H](NC(=O)[C@H]1[C@H](C)[C@@H]1C)C(=O)N1CCC[C@H](N1)C(=O)OCC(C)(C)C2 [Compound Z75, (1r,2R,3S)—N-((6^3S,4S,Z)-1^1-ethyl-1^2-(2-((S)-1-methoxyethyl)-5-(1-(4-methylpiperazine-1-carbonyl)cyclopropyl)pyridin-3-yl)-10,10-dimethyl-5,7-dioxo-6^1,6^2,6^3,6^4,6^5,6^6-hexahydro-1^1H-8-oxa-2(4,2)-thiazola-1(5,3)-indola-6(1,3)-pyridazinacycloundecaphane-4-yl)-2,3-dimethylcyclopropane-1-carboxamide]

Source: US20260234165A1, “MACROCYCLIC COMPOUNDS, PREPARATION METHOD THEREFOR, AND USE THEREOF” (GENFLEET THERAPEUTICS (SHANGHAI) INC., priority 2004, published 2026)
